# Laboratory results from patent publication US20200172491A1, “SUBSTITUTED 5-(HET-)ARYLPYRAZOLAMIDES AND SALTS THEREOF AND THEIR USE AS HERBICIDAL ACTIVE SUBSTANCES” (Bayer CropScience Aktiengesellschaft, priority 2017, published 2020).
# Legend:
# Assay type in all cases: in vivo
# Amaranthus retroflexus [1] = experiment: Post-emergence herbicidal action; settings: 320 g/ha, rated after about 3 weeks, 100% = plants have died, 0% = like control plants
# Experimental: (§1) Seeds of monocotyledonous and dicotyledonous weeds and crop plants were placed in sandy loam in plastic or wood-fiber pots, covered with soil and cultivated in a greenhouse under controlled growth conditions. 2 to 3 weeks after sowing, the test plants were treated at the one-leaf stage. The compounds of the invention, formulated in the form of wettable powders (WP) or as emulsion concentrates (EC), were then sprayed onto the green parts of the plants as aqueous suspension or emulsion with addition of 0.5% additive at a water application rate of 600 l/ha (converted). After the test plants had been kept in the greenhouse under optimum growth conditions for about 3 weeks, the activity of the preparations was rated visually in comparison to untreated controls. For example, 100% activity=the plants have died, 0% activity=like control plants. Tables B1 to B6 below show the effects of selected compounds of the general formula (I) according to Table A1 at an application rate of 320 g/ha on various harmful plants, which were obtained by the aforementioned experimental procedure.
# Stellaria media [2] = experiment: Post-emergence herbicidal action; settings: 320 g/ha, rated after about 3 weeks, 100% = plants have died, 0% = like control plants
# Experimental: as §1
# Veronica persica [3] = experiment: Post-emergence herbicidal action; settings: 320 g/ha, rated after about 3 weeks, 100% = plants have died, 0% = like control plants
# Experimental: as §1
# Viola tricolor [4] = experiment: Post-emergence herbicidal action; settings: 320 g/ha, rated after about 3 weeks, 100% = plants have died, 0% = like control plants
# Experimental: as §1
# Amaranthus retroflexus [5] = experiment: Pre-emergence herbicidal action; settings: 320 g/ha, scored after about 3 weeks, 100% = plants have died, 0% = like control plants
# Excerpt: (§2) Seeds of monocotyledonous and dicotyledonous weed plants and crop plants were placed in plastic or wood-fiber pots and covered with soil. The compounds of the invention, formulated in the form of wettable powders (WP) or as emulsion concentrates (EC), were then applied to the surface of the covering soil as aqueous suspension or emulsion with addition of 0.5% additive at a water application rate equivalent to 600 l/ha. After the treatment, the pots were placed in a greenhouse and kept under good growth conditions for the test plants. After about 3 weeks, the effect of the preparations is scored visually in comparison with untreated controls as percentages. For example, 100% activity=the plants have died, 0% activity=like control plants. Tables B7 to B11 below show the effects of selected compounds of the general formula (I) according to Table A1 at an application rate of 320 g/ha on various harmful plants, which were obtained by the aforementioned experimental procedure.
# Matricaria inodora [6] = experiment: Pre-emergence herbicidal action; settings: 320 g/ha, scored after about 3 weeks, 100% = plants have died, 0% = like control plants
# Excerpt: as §2
# Stellaria media [7] = experiment: Pre-emergence herbicidal action; settings: 320 g/ha, scored after about 3 weeks, 100% = plants have died, 0% = like control plants
# Excerpt: as §2
# Viola tricolor [8] = experiment: Pre-emergence herbicidal action; settings: 320 g/ha, scored after about 3 weeks, 100% = plants have died, 0% = like control plants
# Excerpt: as §2
# Veronica persica [9] = experiment: Pre-emergence herbicidal action; settings: 320 g/ha, scored after about 3 weeks, 100% = plants have died, 0% = like control plants
# Excerpt: as §2
# Ipomoea purpurea = experiment: Post-emergence herbicidal action; settings: 320 g/ha, rated after about 3 weeks, 100% = plants have died, 0% = like control plants
# Experimental: as §1
# Matricaria inodora [10] = experiment: Post-emergence herbicidal action; settings: 320 g/ha, rated after about 3 weeks, 100% = plants have died, 0% = like control plants
# Experimental: as §1
structure (smiles),measurement,setting,value
Cc1nn(C)c(-c2cc(F)ccc2Cl)c1C(=O)Nc1cccc(Cl)c1 [I-004],herbicidal activity on Amaranthus retroflexus (visual rating vs untreated controls),Amaranthus retroflexus [1],100%
same,herbicidal activity on Stellaria media (visual rating vs untreated controls),Stellaria media [2],100%
same,herbicidal activity on Veronica persica (visual rating vs untreated controls),Veronica persica [3],100%
same,herbicidal activity on Viola tricolor (visual rating vs untreated controls),Viola tricolor [4],100%
same,herbicidal activity on Amaranthus retroflexus (visual rating vs untreated controls),Amaranthus retroflexus [5],100%
same,herbicidal activity on Matricaria inodora (visual rating vs untreated controls),Matricaria inodora [6],90%
same,herbicidal activity on Stellaria media (visual rating vs untreated controls),Stellaria media [7],80%
same,herbicidal activity on Viola tricolor (visual rating vs untreated controls),Viola tricolor [8],80%
Cc1cccc(NC(=O)c2c(C)nn(C)c2-c2ccc(F)cc2Cl)c1 [I-022],herbicidal activity on Amaranthus retroflexus (visual rating vs untreated controls),Amaranthus retroflexus [1],100%
same,herbicidal activity on Stellaria media (visual rating vs untreated controls),Stellaria media [2],100%
same,herbicidal activity on Veronica persica (visual rating vs untreated controls),Veronica persica [3],100%
same,herbicidal activity on Viola tricolor (visual rating vs untreated controls),Viola tricolor [4],100%
same,herbicidal activity on Amaranthus retroflexus (visual rating vs untreated controls),Amaranthus retroflexus [5],100%
same,herbicidal activity on Matricaria inodora (visual rating vs untreated controls),Matricaria inodora [6],100%
same,herbicidal activity on Stellaria media (visual rating vs untreated controls),Stellaria media [7],100%
same,herbicidal activity on Veronica persica (visual rating vs untreated controls),Veronica persica [9],100%
Cc1cccc(NC(=O)c2c(C)nn(C)c2-c2ccc(F)cc2Cl)c1C [I-030],herbicidal activity on Amaranthus retroflexus (visual rating vs untreated controls),Amaranthus retroflexus [1],100%
same,herbicidal activity on Ipomoea purpurea (visual rating vs untreated controls),Ipomoea purpurea,100%
same,herbicidal activity on Matricaria inodora (visual rating vs untreated controls),Matricaria inodora [10],90%
same,herbicidal activity on Stellaria media (visual rating vs untreated controls),Stellaria media [2],100%
same,herbicidal activity on Viola tricolor (visual rating vs untreated controls),Viola tricolor [4],100%
same,herbicidal activity on Amaranthus retroflexus (visual rating vs untreated controls),Amaranthus retroflexus [5],100%
same,herbicidal activity on Matricaria inodora (visual rating vs untreated controls),Matricaria inodora [6],100%
same,herbicidal activity on Stellaria media (visual rating vs untreated controls),Stellaria media [7],100%
same,herbicidal activity on Veronica persica (visual rating vs untreated controls),Veronica persica [9],100%
Cc1ccc(Cl)cc1NC(=O)c1c(C)nn(C)c1-c1ccc(F)cc1Cl [I-009],herbicidal activity on Amaranthus retroflexus (visual rating vs untreated controls),Amaranthus retroflexus [1],100%
same,herbicidal activity on Ipomoea purpurea (visual rating vs untreated controls),Ipomoea purpurea,100%
same,herbicidal activity on Matricaria inodora (visual rating vs untreated controls),Matricaria inodora [10],100%
same,herbicidal activity on Stellaria media (visual rating vs untreated controls),Stellaria media [2],100%
same,herbicidal activity on Viola tricolor (visual rating vs untreated controls),Viola tricolor [4],100%
same,herbicidal activity on Amaranthus retroflexus (visual rating vs untreated controls),Amaranthus retroflexus [5],100%
same,herbicidal activity on Matricaria inodora (visual rating vs untreated controls),Matricaria inodora [6],100%
same,herbicidal activity on Stellaria media (visual rating vs untreated controls),Stellaria media [7],100%
same,herbicidal activity on Veronica persica (visual rating vs untreated controls),Veronica persica [9],100%
Cc1nn(C)c(-c2ccc(F)cc2Cl)c1C(=O)Nc1ccccc1Cl [I-029],herbicidal activity on Amaranthus retroflexus (visual rating vs untreated controls),Amaranthus retroflexus [1],100%
same,herbicidal activity on Stellaria media (visual rating vs untreated controls),Stellaria media [2],100%
same,herbicidal activity on Veronica persica (visual rating vs untreated controls),Veronica persica [3],100%
same,herbicidal activity on Viola tricolor (visual rating vs untreated controls),Viola tricolor [4],100%
same,herbicidal activity on Matricaria inodora (visual rating vs untreated controls),Matricaria inodora [6],100%
same,herbicidal activity on Stellaria media (visual rating vs untreated controls),Stellaria media [7],100%
Cc1nn(C)c(-c2ccc(F)cc2Cl)c1C(=O)Nc1c(Cl)cccc1Cl [I-013],herbicidal activity on Amaranthus retroflexus (visual rating vs untreated controls),Amaranthus retroflexus [1],100%
same,herbicidal activity on Ipomoea purpurea (visual rating vs untreated controls),Ipomoea purpurea,100%
same,herbicidal activity on Matricaria inodora (visual rating vs untreated controls),Matricaria inodora [10],100%
same,herbicidal activity on Stellaria media (visual rating vs untreated controls),Stellaria media [2],100%
same,herbicidal activity on Viola tricolor (visual rating vs untreated controls),Viola tricolor [4],100%
same,herbicidal activity on Amaranthus retroflexus (visual rating vs untreated controls),Amaranthus retroflexus [5],100%
same,herbicidal activity on Matricaria inodora (visual rating vs untreated controls),Matricaria inodora [6],100%
same,herbicidal activity on Stellaria media (visual rating vs untreated controls),Stellaria media [7],100%
same,herbicidal activity on Veronica persica (visual rating vs untreated controls),Veronica persica [9],100%
Cc1nn(C)c(-c2ccc(F)cc2Cl)c1C(=O)Nc1cccc(Cl)c1 [I-001],herbicidal activity on Amaranthus retroflexus (visual rating vs untreated controls),Amaranthus retroflexus [1],100%
same,herbicidal activity on Ipomoea purpurea (visual rating vs untreated controls),Ipomoea purpurea,100%
same,herbicidal activity on Matricaria inodora (visual rating vs untreated controls),Matricaria inodora [10],90%
same,herbicidal activity on Stellaria media (visual rating vs untreated controls),Stellaria media [2],100%
same,herbicidal activity on Viola tricolor (visual rating vs untreated controls),Viola tricolor [4],100%
same,herbicidal activity on Amaranthus retroflexus (visual rating vs untreated controls),Amaranthus retroflexus [5],100%
same,herbicidal activity on Matricaria inodora (visual rating vs untreated controls),Matricaria inodora [6],100%
same,herbicidal activity on Stellaria media (visual rating vs untreated controls),Stellaria media [7],100%
same,herbicidal activity on Veronica persica (visual rating vs untreated controls),Veronica persica [9],100%
Cc1nn(C)c(-c2ccc(F)cc2Cl)c1C(=O)Nc1cc(F)ccc1F [I-008],herbicidal activity on Amaranthus retroflexus (visual rating vs untreated controls),Amaranthus retroflexus [1],100%
same,herbicidal activity on Stellaria media (visual rating vs untreated controls),Stellaria media [2],100%
same,herbicidal activity on Veronica persica (visual rating vs untreated controls),Veronica persica [3],80%
same,herbicidal activity on Viola tricolor (visual rating vs untreated controls),Viola tricolor [4],100%
same,herbicidal activity on Amaranthus retroflexus (visual rating vs untreated controls),Amaranthus retroflexus [5],100%
same,herbicidal activity on Matricaria inodora (visual rating vs untreated controls),Matricaria inodora [6],90%
same,herbicidal activity on Stellaria media (visual rating vs untreated controls),Stellaria media [7],100%
same,herbicidal activity on Viola tricolor (visual rating vs untreated controls),Viola tricolor [8],100%
Cc1nn(C)c(-c2ccc(F)cc2Cl)c1C(=O)Nc1cccc2c1C(C)OC2(C)C (centres unmarked) [I-019],herbicidal activity on Amaranthus retroflexus (visual rating vs untreated controls),Amaranthus retroflexus [1],100%
same,herbicidal activity on Stellaria media (visual rating vs untreated controls),Stellaria media [2],80%
same,herbicidal activity on Veronica persica (visual rating vs untreated controls),Veronica persica [3],100%
same,herbicidal activity on Viola tricolor (visual rating vs untreated controls),Viola tricolor [4],100%
same,herbicidal activity on Amaranthus retroflexus (visual rating vs untreated controls),Amaranthus retroflexus [5],100%
same,herbicidal activity on Matricaria inodora (visual rating vs untreated controls),Matricaria inodora [6],100%
same,herbicidal activity on Stellaria media (visual rating vs untreated controls),Stellaria media [7],100%
same,herbicidal activity on Viola tricolor (visual rating vs untreated controls),Viola tricolor [8],100%
